This is an account of results in patent publication US5574043A, “Certain [1,2,5-thiadiazol-4-yl]-1-azabicyclo [3.2.1]octane derivatives and their pharmaceutical uses” (Novo Nordisk A/S, priority 1995, dated 1996).

Structures can show the parent of a compound that is named as a salt.

System in the first data set: not given
Test: not given
Conditions: in vivo; cited from earlier work.
In the case of `COC(=O)C1=CCCN(C)C1` [Arecoline, methyl 1-methyl-1,2,5,6-tetrahydropyridine-3carboxylate], the biological half life entry is “very short”.

The target in a further data set is muscarinic acetylcholine receptors. As to the kind of experiment: Inhibition of specific binding of 3H-Oxotremorine-M (OXO BINDING) in vitro, rat cortex. Also on record: species or system male Wistar rats. The note with it: rat cortex homogenate, 3H-Oxotremorine 1.0 nM, 30 min at 25° C., pH 7.4. Summed up:
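Washed male Wistar rat cortex membranes in 20 mM Hepes pH 7.4 incubated 30 min at 25° C with 1.0 nM ³H-Oxotremorine-M (final) and test compound; nonspecific binding with 1 μg/ml arecoline. Filtration and scintillation counting; IC50 (ng/ml) for specific binding calculated assuming mass-action kinetics.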
Take `CCCSc1nsnc1[C@H]1CN2CCC[C@@H]1C2` (relative stereo) [Compound 57, Endo-6-(3-propylthio-1,2,5-thiadiazol-4-yl)-1-azabicyclo[3.2.1]octane oxalate]: the “Inhibition in vitro OXO BINDING IC50” value is 4.6 ng/mL. Regarding `COc1nsnc1C1=CN2CCC1CC2.O=C(O)C(=O)O` [Compound 4, 3-(3-Methoxy-1,2,5-thiadiazol-4-yl)-1-azabicyclo[2.2.2]oct-2-ene oxalate], the “Inhibition in vitro OXO BINDING IC50” value came out at 21 ng/mL. With `CCCCCSc1nsnc1[C@@H]1CN2CC[C@H]1C2` (relative stereo) [Compound 33, Endo-3-(3-pentylthio-1,2,5-thiadiazol-4-yl)-1-azabicyclo[2.2.1]heptane fumarate], the “Inhibition in vitro OXO BINDING IC50” value worked out at 6.4 ng/mL. In the case of `CCCSc1nsnc1[C@@H]1CN2CCC[C@@H]1C2` (single isomer, unassigned) [Compound 114, (-)-Exo-6-(3-propylthio-1,2,5-thiadiazol-4-yl)-1-azabicyclo[3.2.1]octane (-) D-tartrate], the “Inhibition in vitro OXO BINDING IC50” value amounted to 0.15 ng/mL. With `ClC1=C(c2nsnc2Cl)C2CCC(C1)N2.O=C(O)C(=O)O` (stereo not drawn) [Compound 47, 3-Chloro-2-(3-chloro-1,2,5-thiadiazol-4-yl)-8-azabicyclo[3.2.1]oct-2-ene oxalate], the “Inhibition in vitro OXO BINDING IC50” value is more than 300 ng/mL. `N#CCCSc1nsnc1[C@H]1CN2CCC[C@@H]1C2` (relative stereo) [Compound 90, Endo-6-(3-(2-cyanoethylthio)-1,2,5-thiadiazol-4-yl)-1-azabicyclo[3.2.1]octane oxalate]: the “Inhibition in vitro OXO BINDING IC50” value was 3.3 ng/mL. The same measure, in the same setting: the same measure for `C=CCCCCSc1nsnc1[C@H]1CN2CCC[C@@H]1C2` (relative stereo) [Compound 18, Endo-6-(3-(5-hexenylthio)-1,2,5-thiadiazol-4-yl)-1-azabicyclo[3.2.1]octane oxalate]: 7.5 ng/mL; for `c1ccc(OCCSc2nsnc2[C@H]2CN3CCC[C@H]2C3)cc1` (relative stereo) [Compound 133, Exo-6-(3-(2-phenoxyethylthio)-1,2,5-thiadiazol-4-yl)-1-azabicyclo[3.2.1]octane oxalate]: 0.45 ng/mL; for `CCCCCCOc1nsnc1C1=CC2CCCN(C1)C2.O=C(O)C(=O)O` (stereo not drawn) [Compound 98, 3-(3-Hexyloxy-1,2,5-thiadiazol-4-yl)-1-azabicyclo[3.3.1]non-3-ene oxalate]: 1.0 ng/mL. Consider `CCCCSc1nsnc1C1CN2CCC1CC2.O=C(O)/C=C/C(=O)O` (stereo not drawn) [Compound 13, 3-(3-Butylthio-1,2,5-thiadiazol-4-yl)-1-azabicyclo[2.2.2]octane fumarate], for which the “Inhibition in vitro OXO BINDING IC50” value was found to be 0.65 ng/mL. For the compound `CCCCSc1nsnc1[C@H]1CN2CCC[C@H]1C2` (relative stereo) [Compound 30, Exo-6-(3-butylthio-1,2,5-thiadiazol-4-yl)-1-azabicyclo[3.2.1]octane oxalate], the “Inhibition in vitro OXO BINDING IC50” value stood at 0.13 ng/mL. On to `CCOc1nsnc1C1=C(Cl)CC2CCC1N2.O=C(O)C(=O)O` (stereo not drawn) [Compound 43, 3-Chloro-2-(3-ethoxy-1,2,5-thiadiazol-4-yl)-8-azabicyclo[3.2.1]oct-2-ene oxalate], for which the “Inhibition in vitro OXO BINDING IC50” value worked out at 2.33 ng/mL. Turning to `CCCCCCSc1nsnc1C12CCCN(CC1)C2.O=C(O)C(=O)O` (stereo not drawn) [Compound 68, 5-(3-Hexylthio-1,2,5-thiadiazol-4-yl)-1-azabicyclo[3.2.1]octane oxalate], the “Inhibition in vitro OXO BINDING IC50” value was determined as 0.69 ng/mL. Regarding `N#Cc1ccc(CSc2nsnc2C2CN3CCC2CC3)cc1.O=C(O)C(=O)O` (stereo not drawn) [Compound 45, 3-(3-(4-Cyanobenzylthio)-1,2,5-thiadiazol-4-yl)-1-azabicyclo[2.2.2]octane oxalate], the “Inhibition in vitro OXO BINDING IC50” value amounted to 1.6 ng/mL. Turning to `CC(C)CCCOc1nsnc1[C@@H]1CN2CCC[C@@H]1C2` (relative stereo) [Compound 123, Exo-6-(3-isohexyloxy-1,2,5-thiadiazol-4-yl)-1-azabicyclo[3.2.1]octane dioxalate], the “Inhibition in vitro OXO BINDING IC50” value is 0.47 ng/mL. Take `CCCSc1nsnc1[C@@H]1CN2CCC[C@@H]1C2` (single isomer, unassigned) [Compound 113, (+)-Exo-6-(3-propylthio-1,2,5-thiadiazol-4-yl)-1-azabicyclo[3.2.1]octane (+) L-tartrate]: the “Inhibition in vitro OXO BINDING IC50” value was 0.26 ng/mL. The same measure, in the same setting: the same measure for `c1ccc2sc(SCCCCSc3nsnc3C3CN4CCC3CC4)nc2c1` (stereo not drawn) [Compound 108, 3-(3-(4-(2-Benzothiazolyl)thio)butylthio-1,2,5-thiadiazol-4-yl)-1-azabicyclo[2.2.2]octane oxalate]: 16 ng/mL; for `c1ccc(CSc2nsnc2[C@H]2CN3CCC[C@H]2C3)cc1` (relative stereo) [Compound 134, Exo-6-(3-benzylthio-1,2,5-thiadiazol-4-yl)-1-azabicyclo[3.2.1]octane oxalate]: 0.47 ng/mL; for `CCCCOc1nsnc1C1=CC2CCCN(C1)C2.O=C(O)C(=O)O` (stereo not drawn) [Compound 95, 3-(3-Butoxy-1,2,5-thiadiazol-4-yl)-1-azabicyclo[3.3.1]non-3-ene oxalate]: 1.7 ng/mL. In the case of `CCC(C)Sc1nsnc1C1CN2CCC1CC2.O=C(O)/C=C/C(=O)O` (stereo not drawn) [Compound 100, 3-(3-(1-Methylpropylthio)-1,2,5-thiadiazol-4-yl)-1-azabicyclo[2.2.2]octane fumarate], the “Inhibition in vitro OXO BINDING IC50” value is 0.82 ng/mL. With `c1ccc(CCCSc2nsnc2[C@H]2CN3CCC[C@@H]2C3)cc1` (relative stereo) [Compound 27, Endo-6-(3-(3-phenylpropylthio)-1,2,5-thiadiazol-4-yl)-1-azabicyclo[3.2.1]octane oxalate], the “Inhibition in vitro OXO BINDING IC50” value is 17 ng/mL.

As for `ClC1=C(c2cnsn2)CN2CCCC1C2.O=C(O)C(=O)O` (stereo not drawn) [Compound 65, 4-Chloro-3-(1,2,5-thiadiazol-4-yl)-1-azabicyclo[3.3.1]non-3-ene oxalate], the “Inhibition in vitro OXO BINDING IC50” value amounted to 9.6 ng/mL. For the compound `Clc1nsnc1[C@@H]1CN2CC[C@@H]1C2` (relative stereo) [Compound 21, Exo-3-(3-chloro-1,2,5-thiadiazol-4-yl)-1-azabicyclo[2.2.1]heptane oxalate], the “Inhibition in vitro OXO BINDING IC50” value came out at 0.96 ng/mL. For `N#Cc1ccc(CSc2nsnc2[C@H]2CN3CCC[C@@H]2C3)cc1` (relative stereo) [Compound 28, Endo-6-(3-(4-cyanobenzylthio)-1,2,5-thiadiazol-4-yl)-1-azabicyclo[3.2.1]octane oxalate], the “Inhibition in vitro OXO BINDING IC50” value turned out to be 1.9 ng/mL.

`N#CCCCCSc1nsnc1[C@H]1CN2CCC[C@@H]1C2` (relative stereo) [Compound 92, Endo-6-(3-(4-cyanobutylthio)-1,2,5-thiadiazol-4-yl)-1-azabicyclo[3.2.1]octane oxalate]: the “Inhibition in vitro OXO BINDING IC50” value came to 1.5 ng/mL.

Take `Clc1nsnc1[C@H]1CN2CCC[C@@H]1C2` (relative stereo) [Compound 16, Endo-6-(3-chloro-1,2,5-thiadiazol-4-yl)-1-azabicyclo[3.2.1]octane-oxalate]: the “Inhibition in vitro OXO BINDING IC50” value stood at 67 ng/mL. Turning to `Clc1nsnc1[C@H]1CN2CC[C@@H]1C2` (relative stereo) [Compound 22, Endo-3-(3-chloro-1,2,5-thiadiazol-4-yl)-1-azabicyclo[2.2.1]heptane oxalate], the “Inhibition in vitro OXO BINDING IC50” value amounted to 3.4 ng/mL. The same measure, in the same setting: the value for `c1ccc(CSc2nsnc2[C@H]2CN3CCC[C@@H]2C3)cc1` (relative stereo) [Compound 88, Endo-6-(3-benzylthio-1,2,5-thiadiazol-4-yl)-1-azabicyclo[3.2.1]octane oxalate] was 6.1 ng/mL; that for `CCCCCCOc1nsnc1C1=C(Cl)C2CCCN(C1)C2.Cl` (stereo not drawn) [Compound 94, 4-Chloro-3-(3-hexyloxy-1,2,5-thiadiazol-4-yl)-1-azabicyclo[3.3.1]non-3-ene hydrochloride] was 12 ng/mL. Regarding `CCCCSc1nsnc1C1CN2CCC1CC2.O=C(O)C(O)C(O)C(=O)O` (single isomer, unassigned) [Compound 56, (+) 3-(3-Butylthio-1,2,5-thiadiazol-4-yl)-1-azabicyclo[2.2.2]octane (-)D-tartrate], the “Inhibition in vitro OXO BINDING IC50” value came to 0.14 ng/mL.

As for `CCOc1nsnc1[C@@H]1CN2CCC[C@@H]1C2` (relative stereo) [Compound 118, Exo-6-(3-ethoxy-1,2,5-thiadiazol-4-yl)-1-azabicyclo[3.2.1]octane oxalate], the “Inhibition in vitro OXO BINDING IC50” value was found to be 0.35 ng/mL.

Turning to `N#CCCSc1nsnc1[C@H]1CN2CCC[C@H]1C2` (relative stereo) [Compound 80, Exo-6-(3-(2-cyanoethylthio)-1,2,5-thiadiazol-4-yl)-1-azabicyclo[3.2.1]octane oxalate], the “Inhibition in vitro OXO BINDING IC50” value was 0.30 ng/mL. Consider `CC(C)CSc1nsnc1C1CN2CCC1CC2.O=C(O)/C=C/C(=O)O` (stereo not drawn) [Compound 101, 3-(3-Isobutylthio-1,2,5-thiadiazol-4-yl)-1-azabicyclo[2.2.2]octane fumarate], for which the “Inhibition in vitro OXO BINDING IC50” value was found to be 0.75 ng/mL.

Still in this data set, the particulars now being: rat cortex homogenate, 3H-Oxotremorine 1.0 nM, 30 min at 25° C., pH 7.4; L-tartrate.
In the case of `CCCCSc1nsnc1C1CN2CCC1CC2.O=C(O)C(O)C(O)C(=O)O` (single isomer, unassigned) [Compound 55, (-) 3-(3-Butylthio-1,2,5-thiadiazol-4-yl)-1-azabicyclo[2.2.2]octane (+) L-tartrate], the “Inhibition in vitro OXO BINDING IC50” value stood at 0.43 ng/mL.

The subject of the next data set is central and peripheral muscarinic effects.
Test: not given
The note with it: cited from earlier work.
Consider `COC(=O)C1=CCCN(C)C1` [Arecoline, methyl 1-methyl-1,2,5,6-tetrahydropyridine-3carboxylate], for which the “separation between central and peripheral muscarinic effects” value is recorded as “small separation”.
